Measured values: patent publication US8318792B2, “Therapeutic agent for amyotrophic lateral sclerosis” (Nippon Medical School Foundation, priority 2006, dated 2012)

Assays:
G1H-G93A transgenic mice = test: Clinical symptomatological evaluation (day of onset, survival period, disease period, stage periods); format: in vivo, mouse
Description: 1) The procedure of concentration adjustment, and the amount and the procedure of administration of the compound (a) were as described below. As a base, 0.5% methylcellulose is prepared. 5 mg of the compound (a) is pulverized in an agate mortar, and then a small amount of 0.5% methylcellulose is added to form a complete suspension. Subsequently, a small amount of 0.5% methylcellulose is added gradually, so that finally 5 mg of the compound (a) is suspended in 10 mL of 0.5% methylcellulose. A sample of 5 mg of compound (a)/10 mL of 0.5% methylcellulose (5 mg/10 mL) was prepared by the above-described procedure, and thus the compound (a) was orally administered once a day in a dose of 5 mg per kg of the mouse body weight (5 mg/kg).
As the experimental animal, male transgenic mice over-expressing a high copy number (25 copies) of mutated human SOD1 gene with a G93A point mutation, i.e., B6SJL-TgN [SOD1-G93A]1Gur (G1H-G93A transgenic mice, JR2726; Hemizygote) (Gurney M E, et al., Science, 264, 1772-1775, 1994), were purchased from Jackson Laboratory (Bar Harbor, USA) and used. At the same time, wild-type male mice from the same litter, B6SJL-TgN[SOD1-G93A]1Gur (Wild-type), were also purchased from Jackson Laboratory and used.
The mice were subjected to a clinical symptomatological evaluation everyday. The clinical symptomatological evaluation was performed from one week after the arrival from Jackson Laboratory. […] The day of onset, the survival period and the disease period were indicated by the number of days. In regard to the indication of the number of days of the disease period, one day (one disease day) corresponds to within 24 hours from the onset (the “onset” is determined by the observation of the clinical symptomatological evaluation stage 1), and two days (two disease days) corresponds to more than 24 hours after and within 48 hours from the onset. Subsequent disease days after the onset were determined in the same manner.
The mice were divided into seven experimental groups, to which a placebo, the compound (a), compound (b), compound (c) or allopurinol was administered. That is, the seven groups consist of: an experimental group administered with placebo; a treatment experimental group administered with compound (a) before onset; a treatment experimental group administered with compound (a) after onset; a treatment experimental group administered with compound (b) before onset; a treatment experimental group administered with compound (c) before onset; a treatment experimental group administered with compound (c) after onset; and a treatment group administered with allopurinol before onset. Details of the respective groups will be described in the following.
Ten G1H-G93A transgenic mice were used. From the 80th day after birth, 5 mg/kg of the compound (a) was orally administered everyday. […]
Ten G1H-G93A transgenic mice were used. From the 80th day after birth, 5 mg/kg of the compound (b) was orally administered everyday.
Ten G1H-G93A transgenic mice were used. From the 80th day after birth, 5 mg/kg of the compound (c) was orally administered everyday. […]
Ten G1H-G93A transgenic mice were used. From the 80th day after birth, 5 mg/kg of allopurinol was orally administered everyday.
In regard to the results of the clinical symptomatological evaluation, the day of onset, the survival period (days taken to show quadriplegia and to reach the moribund state), the disease period (days taken to show quadriplegia and to reach the moribund state, from the day of onset), and the time periods for the respective stages of the clinical symptomatological evaluation, were indicated by the average±standard deviation. In regard to the results of the exercise tolerance test, the score values of the respective exercise tolerance tests, including the extension reflex test, inclined plane test, footprint test, rotarod test and beam balance test, were indicated by the average±standard deviation. […]

[1] = test system: neurotoxin in cerebrospinal fluid from ALS patients; details: in vitro; Non-Patent Document 3; cited from earlier work
[2] = test system: transgenic mouse which expresses human mutated SOD1 gene; details: Non-Patent Document 9, cited from earlier work
[3] = 5 mg/kg oral daily from 80th day after birth (before onset), Mann-Whitney's U test, log-rank test
[4] = 5 mg/kg oral once a day from 80th day after birth (before onset), average±SD

Compound	time periods for the respective stages in comparison to placebo group (G1H-G93A transgenic mice; 5 mg/kg oral daily from 80th day after birth (before onset), Mann-Whitney's U test)	disease period extending effect in comparison to placebo group (G1H-G93A transgenic mice; [3])	onset delaying effect in comparison to placebo group (G1H-G93A transgenic mice; [3])	survival period extending effect in comparison to placebo group (G1H-G93A transgenic mice; [3])	day of onset (G1H-G93A transgenic mice; [4])	disease period (G1H-G93A transgenic mice; [4])	survival period (G1H-G93A transgenic mice; [4])	time period of clinical symptomatological stage 1 (G1H-G93A transgenic mice; [4])	time period of clinical symptomatological stage 2 (G1H-G93A transgenic mice; [4])	time period of clinical symptomatological stage 3 (G1H-G93A transgenic mice; [4])	time period of clinical symptomatological stage 4 (G1H-G93A transgenic mice; [4])	time period of clinical symptomatological stage 5 (G1H-G93A transgenic mice; [4])	action on the neurotoxin in cerebrospinal fluid from ALS patients [1]	effect on life span in the transgenic mouse [2]	ALS treating effect ([2]; intraperitoneal administration in an amount of 10 mg/kg)
Oc1ncnc2[nH]ncc12 [allopurinol, reference compound]	not found to have the extended period of respective stages with significant differences	did not lead to the onset delaying effect, survival period extending effect or disease period extending effect	did not result in significant delaying of the day of onset	did not lead to the onset delaying effect, survival period extending effect or disease period extending effect	102.2 ± 4.4 days	21.0 ± 3.6 days	122.2 ± 1.3 days	6.8±1.1 days	5.4±1.3 days	4.4±1.2 days	2.9±0.7 days	1.5±0.5 days	counteract the neurotoxin		
[O-][n+]1cccc(/C(Cl)=N/OC[C@H](O)CN2CCCCC2)c1 [arimoclomol]														prolongation of life	effective
vitamin E													counteract the neurotoxin		
